Paper PMC6278568, “Discovery of 3-Amino-2-Hydroxypropoxyisoflavone Derivatives as Potential Anti-HCV Agents” (Molecules, 2018)
Entries after “also recorded” stand apart in the source; their conditions may differ.

Experiments:
HCV replication = test: Anti-HCV activity in Ava-5 HCV subgenomic replicon cells (firefly luciferase assay); type: cell-based, Hepatitis C virus; conditions: Ava-5 cells
Procedure: Ava-5 cells were treated with compounds 6a–i or the positive ribavirin for three days, and then analyzed through firefly luciferase assay. The concentration that inhibited 50% HCV replication (EC50), the concentration that inhibited 50% cell growth (CC50), and the selectivity index (SI: CC50/EC50) of compounds were determined with ribavirin as a positive control.
(§1) Compounds were dissolved in DMSO at 10 mM and then diluted in culture medium.
(§2) Ava5 cells, an engineered HCV subgenomic replicon cell line, were cultured in Dulbecco′s modified Eagle′s medium (DMEM) with 10% heat-inactivated fetal bovine serum, 1% antibiotic–antimycotic, and 1% non-essential amino acids. Ava5 cells were maintained in DMEM with 1 mg mL^−1 G418 to maintain the stable expression of replicon.

[1] = Cytotoxicity in Ava-5 cells (XTT method); type: cell-based; conditions: human, Ava5 cells (HCV subgenomic replicon cell line); Ava-5 cells, 72 h, XTT method; read-out: CC50 (concentration causing a 50% growth inhibition of uninfected ava-5 cells)
Procedure: as §1, §2
(§3) For cytotoxicity tests, run in parallel with antiviral assays, plates at an initial density of (5 × 10^3 cells/well) were treated with or without serial dilutions of test compounds. Cell viability was determined after 72 h at 37 °C in a humidified CO2 (5%) atmosphere by the (2,3-bis[2-methyloxy-4-nitro-5-sulfophenyl]-2H-tetrazolium-5-carboxanilide) (XTT) method.

ava-5 cells = test: Cytotoxicity in Ava-5 cells (XTT method); type: cell-based
Procedure: as §1, §2, §3

HCV RNA = HCV RNA expression in Ava-5 cells by RT-qPCR; type: cell-based, Hepatitis C virus; conditions: Ava-5 cells, 2.5, 5, 10 and 20 μM, 3 days, normalized by GAPDH mRNA
Procedure: (§4) To further confirm the anti-HCV effect of compound 6b, we treated compound 6b at indicated concentrations in Ava-5 cells for 3 days. […] Treatment of 0.1% dimethyl sulfoxide (DMSO) served as a mock control on inhibition of HCV replication (Figure 3 and Figure 4).
Figure 3 Inhibition of HCV RNA expression in HCV-infected Ava-5 cells by 6b. Ava-5 cells were treated with 2.5, 5, 10 and 20 μM of 6b for 3 days. Total RNA was extracted and quantified HCV RNA levels by RT-qPCR. HCV RNA expression was normalized by cellular GAPDH mRNA. Treatment with 0.1% DMSO served as a mock control. The results are expressed as the means ± standard deviations (SD) of triplicate experiments.

[2] = system: HCV protein synthesis (NS5B); test: HCV protein synthesis in Ava-5 cells by western blotting; type: cell-based, Hepatitis C virus; conditions: Ava-5 cells, 2.5, 5, 10 and 20 μM, 3 days
Procedure: as §4
Ava5 cells were seeded in 24-well plates at a density of 5 × 10^4 cells per well overnight and treated with indicated reagent at proper concentrations for 3 days. Cells were washed with cold phosphate buffer saline (PBS) and lysed by radioimmunoprecipitation assay (RIPA) lysis buffer (50 mM Tris-HCl, pH 7.5, 150 mM NaCl, 1% Nonidet P-40, 2 mM EDTA, 1 mM EGTA, 1 mM NaVO3, 10 mM NaF, 1 mM DTT, 1 mM PMSF, 25 μg/mL aprotinin, and 25 μg/mL leupeptin) and stored at −20 °C. The protein concentration was determined by the Bradford method. Ten μg protein were separated by 10% SDS-PAGE and transferred onto a polyvinylidene difluorid (PVDF) membrane. The membrane was blocked with 5% non-fat dried milk and incubated with specific antibodies against NS5B (1:5000; Abcam Cambridge, MA, USA), glyceraldehyde-3-phosphate dehydrogenase (GAPDH) and anti-HO-1 (1:3000, Abcam Cambridge, MA, USA). Antibodies were diluted in 5% milk containing Tris-buffered saline (TBS) and 0.5% Tween. The blotting signal was developed using an ECL detection kit (PerkinElmer, Norwalk, CT, USA) and was counted by the software Quantity One (Bio-Rad, Foster, CA, USA). […]

HO-1 protein expression = HO-1 protein expression in Ava-5 cells by western blotting; type: cell-based; conditions: 10 μM, 3 days, compared with DMSO-treated cells
Procedure: To determine whether compounds 6b, 6e, 6h and 6i have impact on HO-1 protein expression in Ava-5 cells, we treated these compounds at 10 μM in Ava5 cells.
Ava5 cells were seeded in 24-well plates at a density of 5 × 10^4 cells per well overnight and treated with indicated reagent at proper concentrations for 3 days. Cells were washed with cold phosphate buffer saline (PBS) and lysed by radioimmunoprecipitation assay (RIPA) lysis buffer (50 mM Tris-HCl, pH 7.5, 150 mM NaCl, 1% Nonidet P-40, 2 mM EDTA, 1 mM EGTA, 1 mM NaVO3, 10 mM NaF, 1 mM DTT, 1 mM PMSF, 25 μg/mL aprotinin, and 25 μg/mL leupeptin) and stored at −20 °C. The protein concentration was determined by the Bradford method. Ten μg protein were separated by 10% SDS-PAGE and transferred onto a polyvinylidene difluorid (PVDF) membrane. The membrane was blocked with 5% non-fat dried milk and incubated with specific antibodies against NS5B (1:5000; Abcam Cambridge, MA, USA), glyceraldehyde-3-phosphate dehydrogenase (GAPDH) and anti-HO-1 (1:3000, Abcam Cambridge, MA, USA). Antibodies were diluted in 5% milk containing Tris-buffered saline (TBS) and 0.5% Tween. The blotting signal was developed using an ECL detection kit (PerkinElmer, Norwalk, CT, USA) and was counted by the software Quantity One (Bio-Rad, Foster, CA, USA).
Compound 6b, 6e, 6h and 6i induced HO-1 protein expression. Ava-5 cells were treated with compounds at 10 μM for 3 days. The cell lysate was subjected to western blotting with anti-HO-1 and anti-GAPDH antibodies.

[3] = system: Nrf2 / ARE transactivation; test: ARE transactivation, p3xARE-Luc reporter in Ava-5 cells (luciferase assay); type: cell-based; conditions: p3xARE-Luc-transfected Ava-5 cells, 1 and 10 μM, 3 days
Text: Heme oxygenase 1 expression is regulated by the transcription factors Nrf2, Keap1, and Bach1 through the binding of ARE in its promoter region; therefore, we determined whether isoflavones-mediated HO-1 induction was dependent on ARE transactivation by treating p3xARE-Luc-transfected ava-5 cells with increasing concentrations of […] for 3 days.
Ava5 cells were transfected with the HO-1 promoter-driven luciferase plasmid, pHO-1-Luc, using the T-pro^TM transfection reagent (Ji-Feng Biotechnology Co., Ltd., Taipei, Taiwan) according to the manufacturer′s instructions. The transfected cells were treated with compounds at various concentrations for 3 days. Each transfection complex contains 0.1 μg pSEAP, a secreted alkaline phosphatase (SEAP) expression vector, for normalization luciferase activity serving as a transfection control. The luciferase activity assay was performed using the Bright-Glo Luciferase assay system (Promega) (Madison, WI, USA) according to the manufacturer′s instructions.
Figure 6 Isoflavones inhibited HCV replication by upregulating Nrf2 expression. Compound 6b, 6e, 6h and 6i stimulated ARE transactivation in Ava-5 cells. The antioxidant response reporter plasmid, p3xARE-Luc, was transfected into Ava-5 cells and then treated with isoflavones (1 and 10 μM) for 3 days. The relative induction of antioxidant activity was determined by luciferase assay. The activity of untreated Ava-5 cells was considered to be 1.

In the case of `COc1ccc(CCNCC(O)COc2ccc3c(=O)c(-c4ccc(OC)c(OC)c4)coc3c2)cc1OC` (stereo not drawn) [Compound 6b, 7-{3-[(3,4-Dimethoxyphenethyl)amino]-2-hydroxypropoxy}-3-(3,4-dimethoxyphenyl)-4H-chromen-4-one], the “anti-HCV activity compared with ribavirin (in words)” value (HCV replication; three days) is reported as “more active than ribavirin”, the “SI (selectivity index, CC50/EC50)” value (HCV replication; CC50/EC50) is reported as 21.08 and the EC50 (HCV replication; Hepatitis C virus, Ava5, 72 h, treated for three days, firefly luciferase assay, read-out: EC50 (concentration resulting in a 50% inhibition in virus production / HCV replication)) is reported as 6.53 ± 0.57 µM. The “anti-HCV activity relative to ribavirin” value (HCV replication; ratio of EC50 values) was “approximately 2 fold”, the CC50 at 72 h [1] was 138 ± 6.91 µM and the “cell cytotoxicity at the antiviral test concentrations” value (ava-5 cells; Ava5 cells, 2.5-20 μM, 3 days) was “without cell cytotoxicity”. The “cytotoxicity compared with ribavirin (in words)” value (ava-5 cells; Ava-5 cells) was “less cytotoxic than ribavirin”, the “HCV RNA replication / expression” value (HCV RNA) was “dose-dependently reduced; also recorded: inhibit the HCV RNA expression in Ava5 cells in a dose-dependent manner” and the HCV protein synthesis [2] was “dose-dependently reduced”. For the same compound, the HO-1 protein level (HO-1 protein expression) was “could induce HO-1 protein level”, the ARE-mediated luciferase activity [3] was “increased ARE-mediated luciferase activity” and the melting point was 134 to 135 °C.
